The values that follow come from patent US20040254173A1, “Modulation of dopamine responses with substituted (S)-2,3-benzodiazepines” (priority 2003, published 2004).

This assay concerns apomorphine-induced hypothermia, stereotypies and climbing. Description: Low Dose Apomorphine Test in the mouse. The note with it: for STEREOTYPY (intensity score), 20 min after apomorphine, mean ± s.e.m. / STEREOTYPY (intensity score), 50 min after apomorphine, mean ± s.e.m.: 4 point scale (0-3); for CLIMBING (No. of mice), 20 minutes after apomorphine / CLIMBING (No. of mice), 50 minutes after apomorphine: 6 mice per group; for Rectal Temperature, 30 min after apomorphine, mean ± s.e.m. / Rectal Temperature, 60 min after apomorphine, mean ± s.e.m. / Rectal Temperature, before apomorphine, mean ± s.e.m. / effect on apomorphine-induced hypothermia: mouse; for Rectal Temperature, 30 min after apomorphine, mean change from control / Rectal Temperature, 60 min after apomorphine, mean change from control / STEREOTYPY (intensity score), 20 min after apomorphine, mean change from control / STEREOTYPY (intensity score), 50 min after apomorphine, mean change from control: vs vehicle. In kind it is in vivo. The text has this: Racemic tofisopam, (R)-tofisopam and (S)-tofisopam were investigated in the Low Dose Apomorphine Test in the mouse to evaluate their pro- or anti-dopaminergic activity following intraperitoneal (i.p.) administration of apomorphine. Apomorphine, at a low dose, induces hypothermia, stereotypies and climbing. All three of these symptoms are potentiated by dopaminergic agonists and antagonized by dopamine antagonists, such as classical neuroleptics. The Low Dose Apomorphine Test, thus serves to detect pro- or antidopaminergic activity. The test was performed according to the protocols described by Chermat and Poncelet. See, Chermat R., Poncelet M., “Antagonisme des redressements, des stéréotypies et de l'hypotheimie induits par 1 ou 16 mg.kg-1 d'apomorphine,” J. Pharmacol., 14, 93-97, 1983.
Male mice of Rj: NMRI strain, 23-26 g body weight range were supplied by Elevage Janvier, 53940 Le Genest-Saint-Isle, France. The animals were delivered to the laboratory at least 3 days before the experiment and, upon arrival, were housed 10 per cage in macrolon cages (25×19×13 cm) containing wood shavings (Litalabo-SPPS, 95100 Argenteuil, France) with free access to food (UAR 113-UAR, 91360 Epinay-sur-Orge, France) and tap water (i.e. non-fasted) until tested. The animal house was maintained under artificial lighting (12 hours) between 7.00 and 19.00 in a controlled ambient temperature of 21±1° C., and relative humidity maintained at 40-70%.
The different treatments were equally distributed between the animals. During the experiment, each animal within a cage received the same treatment. Animals within a cage were individually marked on the tail with an indelible pen.
The experiment was conducted blind with treatment vials labeled A, B, C etc., according to a standardized coding procedure. The evaluation of the different treatments was balanced over time by testing successive series of individual animals from each treatment group in a fixed rotation (A, B, C, etc.). Animals were sacrificed at the end of the experiment by exposure to CO2.
Three compounds, racemic tofisopam, (R)-tofisopam and (S)-tofisopam were tested in the Low Dose Apomorphine Test. Each of these three compounds was dosed as a dispersion in 0.2% hydroxypropylmethylcellulose (HPMC) (Sigma), in sterile physiological saline (Laboratoire Aguettant).
Two reference standards were also dosed. Bromocriptine, methanesulfonate (Sigma), a known dopamine agonist, and haloperidol (Sigma), a known dopamine antagonist, were dispersed in 0.2% HPMC in sterile physiological saline.
Apomorphine hydrochloride, the dopamine mimetic employed in the assay, was dissolved in water for injectable preparation (Laboratoire Aguettant). Dosing: All of the dosed substances were administered in a volume of 10 ml/kg. The doses are expressed in mg/kg of supplied substance.
6 mice were studied per group. The test was performed blind.
Racemic tofisopam, (R)-tofisopam and (S)-tofisopam were administered at doses of 16, 32 and 64 mg/kg, administered intraperitonealy (i.p.), 30 minutes prior to administration of apomorphine.
The rectal temperature of the mice was measured prior to apomorphine dosing using a rectal probe (Physitemp Instruments Digital Laboratory Thermometer Model BAT-12). The mice were then placed in individual Plexiglas cages (10×6×4 cm) attached with the opening against a vertical wire grid.
The mice were then injected subcutaneously (s.c.) with apomorphine (1 mg/kg). Rectal temperature was measured 30 and 60 minutes after the injection of apomorphine.
The intensity of stereotypies (sniffing, licking, gnawing), were scored at 20 minutes and 50 minutes after injection of apomorphine on a 4 point scale (0-3). The presence (1) or absence (0) of climbing against the wire grid wall, were also assessed 20 and 50 minutes after injection of apomorphine.
The reference standards bromocriptine (16 mg/kg) and haloperidol (0.5 mg/kg), were administered under the same experimental conditions.

[1] abbreviates: 0.5 mg/kg, before apomorphine 1 mg/kg s.c.
[2] abbreviates: 16 mg/kg i.p. 30 min before apomorphine 1 mg/kg s.c.
[3] abbreviates: 16 mg/kg i.p., 30 min after test substance.
[4] abbreviates: 32 mg/kg i.p. 30 min before apomorphine 1 mg/kg s.c.
[5] abbreviates: 64 mg/kg i.p. 30 min before apomorphine 1 mg/kg s.c.

In the case of `O=C(CCCN1CCC(O)(c2ccc(Cl)cc2)CC1)c1ccc(F)cc1` [Haloperidol, haloperidol], where the note is “0.5 mg/kg”, the “effect on apomorphine-induced stereotypies and climbing as well as hypothermia” value was “significantly antagonized”; the “Rectal Temperature, before apomorphine, mean ± s.e.m.” value was 37.3 ± 0.1 °C; the “effect on apomorphine-induced hypothermia” value is listed as “significantly antagonized”. Moreover, under setting [1], the “STEREOTYPY (intensity score), 20 min after apomorphine, mean ± s.e.m.” value is given as 0.0 ± 0.0; the “STEREOTYPY (intensity score), 50 min after apomorphine, mean ± s.e.m.” value amounted to 0.0 ± 0.0; the “CLIMBING (No. of mice), 20 minutes after apomorphine” value (“CLIMBING (No. of mice), 20 minutes” for short) was 0+ No. of mice; the “CLIMBING (No. of mice), 50 minutes after apomorphine” value (“CLIMBING (No. of mice), 50 minutes” for short) is 1 No. of mice. Further, under setting [1], the “Rectal Temperature, 30 min after apomorphine, mean ± s.e.m.” value stood at 37.0 ± 0.1 °C; the “Rectal Temperature, 60 min after apomorphine, mean ± s.e.m.” value was found to be 37.7 ± 0.1 °C; the “Rectal Temperature, 30 min after apomorphine, mean change from control” value was “+1.9 °C”; the “Rectal Temperature, 60 min after apomorphine, mean change from control” value was “+1.0 °C”. In addition, under setting [1], the “STEREOTYPY (intensity score), 20 min after apomorphine, mean change from control” value was −2.2 and the “STEREOTYPY (intensity score), 50 min after apomorphine, mean change from control” value is listed as −1.0.
As to Bromocriptine, methanesulfonate, under “16 mg/kg”, the “effect on apomorphine-induced stereotypies or climbing” value was “did not significantly affect” and the “effect on apomorphine-induced hypothermia” value is on record as “significantly potentiated”. Moreover, under setting [2], the “STEREOTYPY (intensity score), 20 min after apomorphine, mean ± s.e.m.” value was 2.7 ± 0.2; the “STEREOTYPY (intensity score), 50 min after apomorphine, mean ± s.e.m.” value turned out to be 1.0 ± 0.4; the “CLIMBING (No. of mice), 20 minutes” value is reported as 6 No. of mice; the “CLIMBING (No. of mice), 50 minutes” value was 2 No. of mice. Under setting [2], the “Rectal Temperature, 30 min after apomorphine, mean ± s.e.m.” value was 34.4 ± 0.4 °C; the “Rectal Temperature, 60 min after apomorphine, mean ± s.e.m.” value is 35.0 ± 0.5 °C; the “Rectal Temperature, 30 min after apomorphine, mean change from control” value was −0.7 °C; the “Rectal Temperature, 60 min after apomorphine, mean change from control” value is −1.7 °C. For the same compound, under setting [2], the “STEREOTYPY (intensity score), 20 min after apomorphine, mean change from control” value is reported as “+0.5” and the “STEREOTYPY (intensity score), 50 min after apomorphine, mean change from control” value came to 0.0. For the same compound, the “Rectal Temperature, before apomorphine, mean ± s.e.m.” value under setting [3] was determined as 37.2 ± 0.2 °C.
On to `CC[C@@H]1C(C)=NN=C(c2ccc(OC)c(OC)c2)c2cc(OC)c(OC)cc21` [(S)-tofisopam, (S)-1-(3,4-dimethoxyphenyl)-4-methyl-5-ethyl-7,8-dimethoxy-5H-2,3-benzodiazepine], for which, under setting [2], the “STEREOTYPY (intensity score), 20 min after apomorphine, mean ± s.e.m.” value is on record as 3.0 ± 0.0; the “STEREOTYPY (intensity score), 50 min after apomorphine, mean ± s.e.m.” value is recorded as 0.7 ± 0.2; the “CLIMBING (No. of mice), 20 minutes” value is 6 No. of mice; the “CLIMBING (No. of mice), 50 minutes” value is 3 No. of mice. Under setting [2], the “Rectal Temperature, 30 min after apomorphine, mean ± s.e.m.” value stood at 34.8 ± 0.4 °C; the “Rectal Temperature, 60 min after apomorphine, mean ± s.e.m.” value was determined as 37.2 ± 0.2 °C; the “Rectal Temperature, 30 min after apomorphine, mean change from control” value is −0.3 °C; the “Rectal Temperature, 60 min after apomorphine, mean change from control” value was “+0.5 °C”. Under setting [2], the “STEREOTYPY (intensity score), 20 min after apomorphine, mean change from control” value is given as “+0.8” and the “STEREOTYPY (intensity score), 50 min after apomorphine, mean change from control” value is −0.3. Moreover, the “Rectal Temperature, before apomorphine, mean ± s.e.m.” value under setting [3] stood at 37.2 ± 0.3 °C. For the same compound, where the note is “16 mg/kg, sixty minutes after apomorphine, slight but statistically significant elevation in temperature”, the “behaviour on apomorphine-induced hypothermia (rectal temperature)” value was “weak dopamine antagonist”. Further, the “behaviour on apomorphine-induced stereotypies” value (16 mg/kg, twenty minute time point) is “strong dopamine agonist”. For the same compound, under setting [4], the “STEREOTYPY (intensity score), 20 min after apomorphine, mean ± s.e.m.” value came to 2.3 ± 0.3; the “STEREOTYPY (intensity score), 50 min after apomorphine, mean ± s.e.m.” value is 0.3 ± 0.2; the “CLIMBING (No. of mice), 20 minutes” value is on record as 6 No. of mice; the “CLIMBING (No. of mice), 50 minutes” value was 2 No. of mice. In addition, under setting [4], the “Rectal Temperature, 30 min after apomorphine, mean ± s.e.m.” value was found to be 34.4 ± 0.3 °C; the “Rectal Temperature, 60 min after apomorphine, mean ± s.e.m.” value was determined as 36.6 ± 0.2 °C; the “Rectal Temperature, 30 min after apomorphine, mean change from control” value is −0.7 °C; the “Rectal Temperature, 60 min after apomorphine, mean change from control” value was −0.1 °C. Moreover, under setting [4], the “STEREOTYPY (intensity score), 20 min after apomorphine, mean change from control” value is “+0.1” and the “STEREOTYPY (intensity score), 50 min after apomorphine, mean change from control” value is given as −0.7. Also, the “Rectal Temperature, before apomorphine, mean ± s.e.m.” value (32 mg/kg i.p., 30 min after test substance) is 37.0 ± 0.2 °C. Moreover, under setting [5], the “STEREOTYPY (intensity score), 20 min after apomorphine, mean ± s.e.m.” value turned out to be 0.2 ± 0.2; the “STEREOTYPY (intensity score), 50 min after apomorphine, mean ± s.e.m.” value worked out at 0.2 ± 0.2; the “CLIMBING (No. of mice), 20 minutes” value is on record as 0+ No. of mice; the “CLIMBING (No. of mice), 50 minutes” value is 0 No. of mice. Under setting [5], the “Rectal Temperature, 30 min after apomorphine, mean ± s.e.m.” value amounted to 33.6 ± 0.7 °C; the “Rectal Temperature, 60 min after apomorphine, mean ± s.e.m.” value came to 33.3 ± 1.0 °C; the “Rectal Temperature, 30 min after apomorphine, mean change from control” value is −1.5 °C; the “Rectal Temperature, 60 min after apomorphine, mean change from control” value is −3.4 °C. Also, under setting [5], the “STEREOTYPY (intensity score), 20 min after apomorphine, mean change from control” value is on record as −2.0 and the “STEREOTYPY (intensity score), 50 min after apomorphine, mean change from control” value is −0.8. Also, the “Rectal Temperature, before apomorphine, mean ± s.e.m.” value (64 mg/kg i.p., 30 min after test substance) is 37.2 ± 0.2 °C. In addition, the “behaviour on apomorphine-induced stereotypies and climbing” value (64 mg/kg, twenty and fifty minute time points) is recorded as “strong dopamine antagonist”. Besides, the “behaviour on apomorphine-induced hypothermia (rectal temperature)” value (higher doses (32, 64 mg/kg), thirty and sixty minute time points, lowering the rectal temperature) was “dopamine antagonism”.
